Here are results for ten compounds from US6664285B1, “Use of cell membrane penetrating indigoid bisindole derivatives” (priority 1999, dated 2003).

Like-named read-outs stand apart in the source and are kept apart here.

For one series, the system named is LXFL 529L cells. The experiment in a line: Cellular uptake into LXFL 529L cells. Conditions: for distribution cellular organelles / distribution cytosol: 2 hours incubation. The method, then:
The compounds of Examples 1, 6 and 8 and Comparative Examples 1 and 2 were investigated with respect to their ability to penetrate LXFL 529L cells having the passage numbers P23 to P39. The amounts of the substances taken up by the cells are given depending on the concentration of the substance within the incubation medium. The time of incubation was 2 hours in all of the experiments. Furthermore, the distribution of the substance which was taken up by the cells in the cytosol and the cellular organelles (particular) was estimated and is given in the intermediate column of Table 2. Tumor cell growth inhibition was determined by the sulfo-rhodamine B assay (SRB assay) according to Skehan et al., J. Natl. Cancer Institute 82, pages 1107-1112 (1990). Incubation was conducted for three days in serum containing medium. Tumor cell lines tested were a large-cell lung carcinoma xenograft line LXFL 529 L and the mammary carcinoma line MCF-7.

Series [1] has as its system various tumor cell lines (all). The experiment in a line: Colony-forming assay, all tumor xenografts. The format is cell-based, human. An excerpt:
The compounds according to the inventive Examples show good to excellent anti-tumor activity against various types of tumor cell lines.

Series [2] has as its system mammary carcinoma line MCF-7. The experiment in a line: Tumor cell growth inhibition, sulforhodamine B (SRB) assay. It counts as cell-based, human. The note with it: MCF7; three days incubation, serum containing medium.
Another series is described as follows: Solubility. The format is physicochemical.
The test system of series [3] is large-cell lung carcinoma xenograft line LXFL 529 L. The experiment in a line: Tumor cell growth inhibition, sulforhodamine B (SRB) assay. It counts as cell-based, human. The note with it: LXFL529L; three days incubation, serum containing medium.
Series [4] concerns LXFA526 (lung adenocarcinoma). The series can be described thus: Colony-forming assay. Conditions: for IC50: read-out: IC50 colony formation. It counts as cell-based, human.
Series [5] relates to LXFS650 (lung small-cell). The series can be described thus: Colony-forming assay. It counts as cell-based, human.
Another series relates to MCF7X (mammary). The series can be described thus: Colony-forming assay. It counts as cell-based, human. The note with it: for IC50: read-out: IC50 colony formation.
The test system of another series is HT29X (colon). The series can be described thus: Colony-forming assay. It counts as cell-based, human. Conditions: for IC50: read-out: IC50 colony formation.
The next series relates to PAXF546 (pancreatic). The series can be described thus: Colony-forming assay. The format is cell-based, human. The note with it: for IC50: read-out: IC50 colony formation.
Another series deals with MEXF514 (melanoma). The series can be described thus: Colony-forming assay. The note with it: for IC50: read-out: IC50 colony formation. It counts as cell-based, human.
A further series deals with PAXF736 (pancreatic). The experiment in a line: Colony-forming assay. It counts as cell-based, human. Conditions: for IC50: read-out: IC50 colony formation.
The subject of a further series is 1220 (renal). The experiment in a line: Colony-forming assay. It counts as cell-based, human. The note with it: renal 1220.
In series [6] the test system is human tumor xenograft LXFL 529. The experiment in a line: In vivo testing in nude mice bearing subcutaneous tumor xenograft. The method, then:
Compound of Examples 1, 4, 6, 8, 9 and 10 were subjected to in vivo testing in nude mice bearing subcutaneously growing human tumor xenograft LXFL 529. The indigoid bisindole derivatives were applied intraperitoneally to the animals in doses and according to the schedule as described in Table 4.
The experiments were run for 21 or 28 days. Anti-tumor activity was evaluated comparing the median tumor volume relative to control, expressed as %T/C, wherein T is the test group and C the vehicle control group. In Table 4, anti-tumor activity is given according to an activity rate scale.

For another series, the system named is OVXF1353 (ovarian). The series can be described thus: Colony-forming assay. It counts as cell-based, human. Conditions: for IC50: read-out: IC50 colony formation. The method, then: The anti-tumor activity of the compounds was evaluated via a colony-forming-assay as described e.g. by D. P. Berger et al. in Annals of Oncology 1, pages 333-341 (1 990), “The clonongenic assay with human tumor xenografts, evaluation, predictive values and application for drug screening”.
The experiments were conducted using various tumor cell lines, in particular mammary carcinoma (MAXF), lung adenocarcinoma (LXFA), large-cell lung carcinoma (LXFL), small-cell lung carcinoma (LXFS), colon carcinoma (CXF), melanoma (MEXF), pancreatic carcinoma (PAXF), renal carcinoma (RXF), ovarian carcinoma (OVXF) and bladder carcinoma (BXF).

Another series has as its system MX1 (mammary). The series can be described thus: Colony-forming assay. It counts as cell-based, human.
Another series has as its system BXF1301 (bladder). The experiment in a line: Colony-forming assay. The format is cell-based, human. Conditions: for IC50: read-out: IC50 colony formation.
The test system of another series is MEXF515LX (melanoma). The series can be described thus: Colony-forming assay. It counts as cell-based, human. Conditions: for IC50: read-out: IC50 colony formation.
For a further series, the system named is MEXF989 (melanoma). The experiment in a line: Colony-forming assay. The format is cell-based, human.
For a further series, the system named is CXF280 (colon). The experiment in a line: Colony-forming assay. The format is cell-based, human. The note with it: for IC50: read-out: IC50 colony formation.
The test system of series [7] is LXFA289 (lung adenocarcinoma). The series can be described thus: Colony-forming assay. The format is cell-based, human. Conditions: for IC50: read-out: IC50 colony formation.
Where [8] appears, read: read-out: IC50 colony formation.
Where [9] appears, read: type printed pancreatic, xenograft printed HT29X.
Setting [10] is: concentration of incubation 10 μM.
[11] abbreviates: concentration of incubation 20 μM.
Where [12] appears, read: 100 mg/kg/day i.p., days 1, 4, 8, 11, 15, 18, 22.
[13] abbreviates: 300 mg/kg/day i.p., days 1, 4, 8, 11, 15, 18, 22.

As for `O=C1Nc2ccc(S(=O)(=O)O)cc2C1=C1Nc2ccccc2C1=O` [Comparative Example 1, Indirubin-5-sulfonic acid, reference compound], the “uptake by the tumor cells (in words)” value with LXFL 529L cells (LXFL 529L cells) is listed as “essentially not taken up by the cells”. Further, the IC70 colony formation in series [1] (tumor xenograft type (all)) was greater than 30.0 µM. The IC50 in series [1] (tumor xenograft type (all), read-out: IC50 colony formation) was greater than 30 µM; in [2], greater than 100 µM; in series [3], greater than 100 µM. Besides, the “anti-tumor activity (in words)” value in series [1] (various types of tumor cell lines) is on record as “does not exhibit an anti-tumor activity against any of the tumor lines”. Also, the “solubility in physiological solutions (in words)” value in the series “Solubility” is recorded as “well soluble in physiological solutions”.

`O=C1Nc2ccc(S(=O)(=O)O)cc2C1=C1Nc2ccccc2C1=NO` [Comparative Example 2, Indirubin-3′-oxime-5-sulfonic acid, reference compound]: in the series with LXFL 529L cells (LXFL 529L cells), the “uptake by the tumor cells (in words)” value is “essentially not taken up by the cells”. Also, the IC50 in series [2] and in series [3] was greater than 100 µM each time. In the series “Solubility”, the “solubility in physiological solutions (in words)” value was “well soluble in physiological solutions”.

In the case of `O=C1Nc2ccc(I)cc2/C1=C1/Nc2ccccc2C1=O` [Example 2, 5-Iodoindirubin], the IC70 colony formation in series [4] is 23 µM; in [5], 24.5 µM; in the series with MCF7X (mammary), 2.5 µM; with HT29X (colon) (colon HT29X), greater than 30 µM; in the series with PAXF546 (pancreatic), greater than 30 µM. Moreover, the IC50 in series [4] is 8 µM; in series [5] (setting [8]), 13.7 µM; with MCF7X (mammary), less than 1 µM; in the series on HT29X (colon) (colon HT29X), 6.3 µM; in the series on PAXF546 (pancreatic), 18 µM.

Regarding `O=C1Nc2ccc(Br)cc2/C1=C1/Nc2ccccc2C1=O` [Example 3, 5-Bromoindirubin], the IC70 colony formation in series [4] is 14.4 µM; in the series with MCF7X (mammary), less than 1.0 µM; with HT29X (colon) (colon HT29X) it was 17.3 µM; in the series on HT29X (colon) (setting [9]) it was greater than 30 µM; in the series on MEXF514 (melanoma) it was 8.0 µM. In addition, the 50% inhibitory concentration (IC50) in [4] was 2.3 µM; in the series with MCF7X (mammary) it was less than 1 µM; in the series on HT29X (colon) (colon HT29X), less than 1 µM; in the series on HT29X (colon) (setting [9]), 13.2 µM; in the series with MEXF514 (melanoma) it was 3.4 µM.

For `O=C1Nc2ccc(Cl)cc2/C1=C1/Nc2ccccc2C1=O` [Example 4, 5-Chloroindirubin], the IC70 colony formation with MCF7X (mammary) was less than 1.0 µM; in the series with HT29X (colon) (colon HT29X), 17.3 µM; with PAXF736 (pancreatic), 8.0 µM; in the series on 1220 (renal), 24.7 µM; in the series with PAXF546 (pancreatic), greater than 30 µM; in the series on MEXF514 (melanoma), 26.0 µM. For the same compound, the concentration for half-maximal inhibition (IC50) with MCF7X (mammary) is less than 1 µM; in the series with HT29X (colon) (colon HT29X), less than 1 µM; in the series on PAXF736 (pancreatic) it was 3.2 µM; in the series on 1220 (renal) (setting [8]), 11.2 µM; in the series with PAXF546 (pancreatic) it was 4.6 µM; in the series with MEXF514 (melanoma), 17.1 µM. For the same compound, the activity rating entry in [6] (100 mg/kg/day i.p., days 1-5) is recorded as “++ (tumor stasis T/C ≦ 25%)”; in [6] (300 mg/kg/day i.p., days 1-5), “++ (tumor stasis T/C ≦ 25%)”. In series [6] (LXFL 529/17, i.p., nude mice, FIG. 1), the “tumor growth (relative tumor volume) compared to the vehicle control (in words)” value is reported as “significantly inhibited the tumor growth”.

As for `O=C1Nc2ccc(F)cc2C1=C1Nc2ccccc2C1=O` [Example 5, 5-Fluoroindirubin], the IC70 colony formation in the series with MCF7X (mammary) is less than 1.0 µM; in the series with PAXF736 (pancreatic) it was 1.1 µM; in the series with OVXF1353 (ovarian) it was 6.1 µM. In addition, the IC50 in the series with MCF7X (mammary), in the series with PAXF736 (pancreatic) and in the series with OVXF1353 (ovarian) was less than 1 µM throughout.

For `O=C1Nc2ccc([N+](=O)[O-])cc2C1=C1Nc2ccccc2C1=O` [Example 7, 5-Nitroindirubin], in the series on MCF7X (mammary), the IC70 colony formation is 15.1 µM and the IC50 was less than 1 µM. Besides, in the series with MEXF514 (melanoma), the IC70 colony formation was greater than 10.0 µM and the 50% inhibitory concentration (IC50) was found to be 4.9 µM.

Consider `O=C1Nc2ccccc2/C1=C1/Nc2ccccc2/C1=N\O` [Example 8, Indirubin-3′-oxime], for which the IC70 colony formation was 9.2 µM in the series with MX1 (mammary); 16.1 µM with BXF1301 (bladder); 5.7 µM in the series on MEXF515LX (melanoma); 2.6 µM with MEXF989 (melanoma); 12.6 µM with CXF280 (colon); 3.4 µM in series [7]. For the same compound, the 50% inhibitory concentration (IC50) with MX1 (mammary) (setting [8]) amounted to 7.7 µM; in the series with BXF1301 (bladder) it was 10.6 µM; with MEXF515LX (melanoma), 2.8 µM; in the series on MEXF989 (melanoma) (setting [8]) it was 1 µM; in [2] it was 3.3 ± 0.4 µM; in the series on CXF280 (colon), 8 µM. In addition, the IC50 was 0.9 µM in series [7] and 3 ± 0.5 µM in series [3]. Further, in the series with LXFL 529L cells (LXFL 529L cells), the “ability to penetrate the cellular membrane / uptake compared to indirubin (Example 1) (in words)” value is “slightly improved”. Further, the “uptake by the tumor cells (in words)” value in the series on LXFL 529L cells (LXFL 529L cells) was “taken up by the tumor cells”. Also, the distribution cellular organelles in the series on LXFL 529L cells (setting [10]) turned out to be 57 ± 14.1%; in the series with LXFL 529L cells (setting [11]), 56 ± 15.6%. Besides, the distribution cytosol in the series with LXFL 529L cells (setting [10]) was 43 ± 14.1%; in the series with LXFL 529L cells (setting [11]), 44 ± 15.6%. The activity rating result in [6] (setting [12]) and in series [6] (setting [13]) was “− (inactive T/C > 50%)” throughout.

`O=C1Nc2ccc(I)cc2/C1=C1/Nc2ccccc2/C1=N\O` [Example 9, 5-Iodoindirubine-3′-oxime]: the IC70 colony formation in the series on BXF1301 (bladder) stood at 5.8 µM; in the series with MEXF515LX (melanoma), 4.9 µM; in the series on MCF7X (mammary), 10.4 µM; in the series with CXF280 (colon), 16.3 µM; in series [7], 0.7 µM. Further, the half-inhibitory concentration (IC50) in the series on BXF1301 (bladder) amounted to 4 µM; in the series on MEXF515LX (melanoma), 2.6 µM; in the series on MCF7X (mammary), 2.4 µM; in the series with CXF280 (colon), 10.7 µM; in series [7], 0.05 µM. For the same compound, the results for the activity rating result in series [6] (setting [12]) and in series [6] (setting [13]) were “− (inactive T/C > 50%)” and “+ (tumor inhibition T/C > 25-50%)”, respectively.

For `O=C1/C(=C2\Nc3ccccc3C2=O)Nc2ccccc21` [Example 11, Indigo], the IC50 in the series on HT29X (colon) (Homo sapiens, colon HT29X) is 3.3 µM; with OVXF1353 (ovarian) (Homo sapiens), 3.9 µM; in series [7] (Homo sapiens), 3.5 µM. Also, the IC70 colony formation in the series on HT29X (colon) (colon HT29X) was 26.1 µM; with OVXF1353 (ovarian), 16.7 µM; in series [7] it was 12.3 µM.
